This note sets out measurements from patent US6872730B2, “Substituted benzofurans and benzothiophenes, methods of making and methods of use as integrin antagonists” (3-Dimensional Pharmaceuticals, Inc., priority 2001, dated 2005).

Each structure is given as a SMILES string. pIC50: −log10 of the molar value.

The target in the assay is T1, human αvβ3 (Homo sapiens, UniProt P05106+P06756).
T1 construct: purchased Chemicon CC1019
T1 sequence (P06756 31-889 limits assumed): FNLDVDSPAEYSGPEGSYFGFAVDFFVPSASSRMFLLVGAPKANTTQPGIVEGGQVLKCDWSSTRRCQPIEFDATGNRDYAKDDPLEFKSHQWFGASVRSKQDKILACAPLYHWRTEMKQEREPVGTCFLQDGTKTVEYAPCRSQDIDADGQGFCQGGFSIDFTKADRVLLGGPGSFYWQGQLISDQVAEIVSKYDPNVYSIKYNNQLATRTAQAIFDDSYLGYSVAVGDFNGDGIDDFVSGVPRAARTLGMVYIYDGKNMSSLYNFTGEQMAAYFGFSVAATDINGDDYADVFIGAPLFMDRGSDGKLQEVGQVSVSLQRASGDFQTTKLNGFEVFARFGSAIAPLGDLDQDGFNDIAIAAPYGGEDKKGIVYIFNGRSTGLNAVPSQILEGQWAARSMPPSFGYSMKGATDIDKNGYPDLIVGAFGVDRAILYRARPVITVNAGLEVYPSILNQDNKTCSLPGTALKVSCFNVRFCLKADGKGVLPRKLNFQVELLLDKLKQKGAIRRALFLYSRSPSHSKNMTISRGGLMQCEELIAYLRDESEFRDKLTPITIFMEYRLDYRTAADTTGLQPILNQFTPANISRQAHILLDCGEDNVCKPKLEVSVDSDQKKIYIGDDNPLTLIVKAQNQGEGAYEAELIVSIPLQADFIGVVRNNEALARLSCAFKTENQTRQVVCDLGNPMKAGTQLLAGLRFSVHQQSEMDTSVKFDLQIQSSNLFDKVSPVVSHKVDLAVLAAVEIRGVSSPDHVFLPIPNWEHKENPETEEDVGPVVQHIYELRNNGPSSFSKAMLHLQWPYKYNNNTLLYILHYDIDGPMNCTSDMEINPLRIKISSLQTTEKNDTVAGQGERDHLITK
T1 sequence (P06756 891-1048 partner limits assumed): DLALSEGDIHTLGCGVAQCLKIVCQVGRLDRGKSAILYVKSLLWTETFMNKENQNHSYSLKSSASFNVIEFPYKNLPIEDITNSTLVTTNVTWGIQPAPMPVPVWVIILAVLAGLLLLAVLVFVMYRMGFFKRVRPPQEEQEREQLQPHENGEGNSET
T1 sequence (P05106 27-788): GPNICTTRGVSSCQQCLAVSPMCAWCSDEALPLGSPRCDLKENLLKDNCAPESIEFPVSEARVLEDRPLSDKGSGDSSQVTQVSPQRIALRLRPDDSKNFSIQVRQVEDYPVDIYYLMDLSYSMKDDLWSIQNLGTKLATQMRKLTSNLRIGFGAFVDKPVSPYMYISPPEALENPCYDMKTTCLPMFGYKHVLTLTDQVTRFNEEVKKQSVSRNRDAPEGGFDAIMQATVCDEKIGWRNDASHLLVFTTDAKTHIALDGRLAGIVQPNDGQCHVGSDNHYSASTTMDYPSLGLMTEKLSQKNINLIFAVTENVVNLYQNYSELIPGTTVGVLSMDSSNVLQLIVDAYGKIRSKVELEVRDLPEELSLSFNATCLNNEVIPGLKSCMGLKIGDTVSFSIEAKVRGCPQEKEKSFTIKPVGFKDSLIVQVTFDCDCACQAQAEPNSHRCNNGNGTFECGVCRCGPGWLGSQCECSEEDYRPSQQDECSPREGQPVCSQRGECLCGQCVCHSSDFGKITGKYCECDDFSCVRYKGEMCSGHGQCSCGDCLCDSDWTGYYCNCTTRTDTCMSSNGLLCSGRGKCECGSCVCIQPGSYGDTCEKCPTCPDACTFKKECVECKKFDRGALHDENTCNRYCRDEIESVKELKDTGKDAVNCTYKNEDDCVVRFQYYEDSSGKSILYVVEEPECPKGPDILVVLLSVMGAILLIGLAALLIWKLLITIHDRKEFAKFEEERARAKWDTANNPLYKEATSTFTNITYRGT
Kind of assay: αvβ3-vitronectin assay. The class given is binding. The note with it: ELISA plate coated with human αvβ3, biotinylated human vitronectin, room temperature; read-out: IC50 for inhibition of the αvβ3-vitronectin interaction. As for the experimental part:
The assay is based on the method of Dennis (Dennis, M. S., et al., Proteins 15: 312-321 (1993)). Costar 9018 flat-bottom 96-well ELISA plates were coated overnight at 4° C. with 100 μL/well of 10 μg/mL human fibrinogen (Calbiochem 341578) in 20 mM Tris-HCl pH 7.5, 150 mM NaCl, 2 mM CaCl2, 0.02% NaN3 (TAC buffer), and blocked for 1 hr at 37° C. with 150 μL/well of TAC buffer containing 0.05% Tween 20 and 1% bovine serum albumin (TACTB buffer). After washing 3 times with 200 μL/well of 10 mM Na2 HPO4 pH 7.5, 150 mM NaCl, 0.01% Tween 20 (PBST buffer), controls or test compound (0.027-20.0 μM) were mixed with 40 μg/mL human GPIIbIIIa (Enzyme Research Laboratories) in TACTB buffer, and 100 μL/well of these solutions were incubated for 1 hr at 37° C. The plate was then washed 5 times with PBST buffer, and 100 μL/well of a monoclonal anti-GPIIbIIIa antibody in TACTB buffer (1 μg/mL, Enzyme Research Laboratories MabGP2b3a) was incubated at 37° C. for 1 hr. After washing (5 times with PBST buffer), 100 μL /well of goat anti-mouse IgG conjugated to horseradish peroxidase (Kirkegaard & Perry 14-23-06) was incubated at 37° C. for 1 hr (25 ng/mL in PBST buffer), followed by a 6-fold PBST buffer wash. The plate was developed by adding 100 μL/well of 0.67 mg o-phenylenediamine dihydrochloride per mL of 0.012% H2O2, 22 mM sodium citrate, 50 mM sodium phosphate, pH 5.0 at room temperature. The reaction was stopped with 50 μL/well of 2M H2SO4, and the absorbence at 492 nm was recorded. Percent (%) inhibition was calculated from the average of three separate determinations relative to buffer controls (no test compound added), and a four parameter fit (Marquardt, D. W., J. Soc. Indust. Appl. Math. 11:431-441 (1963)) was used to estimate the half maximal inhibition concentration (IC50).
The assay was based on the method of Niiya (Niiya, K., et al., Blood 70:475-483 (1987)). […] Following a 5-fold PBST buffer wash, the plate was developed and results were calculated as described for the fibrinogen-IIbIIIa assay.
The pIC50 is −log10 of the IC50, conventionally taken in molar units. For `CNc1cccc(CCOc2ccc3c(CCC(=O)O)csc3c2)n1` [Example 1, 3-(6-{2-[6-(methylamino)-2-pyridyl]ethoxy}benzo [b]thiophen-3-yl)propanoic acid], the pIC50 is 7.52.
The value for `O=C(O)CCc1csc2cc(OCCc3ccc4c(n3)NCCC4)ccc12` [Example 2, 3-{6-[2-(5,6,7,8-Tetrahydro-[1,8]naphthyridin-2-yl)-ethoxy]-benzo[b]thiophen-3-yl}-propionic acid] was 8.10; that for `CNc1cccc(CCOc2ccc3c(CCC(=O)O)coc3c2)n1` [Example 3, 3-(6-{2-[6-(Methylamino)-2-pyridyl]ethoxy}benzo[b]furan-3-yl)propanoic acid] was 7.48.
